These results are taken from patent US20240336642A1 (The General Hospital Corporation, priority 2021, published 2024).

One data set has as its target h12/15-LOX (Homo sapiens (Human), UniProt P16050). Briefly: 12/15-LOX enzyme inhibition IC50 assay (Examples 1 and 2). In kind it is biochemical. The protocol:
Enzyme was then added to the cuvettes. […] The % inhibition for each test compound concentration were calculated as follows: […]

The nature of data set [1]: Metabolic stability of exemplified compounds (Example 4). In kind it is in vitro ADME.
A further data set concerns the target Human 12/15-LOX E. coli (Homo sapiens (Human), UniProt P16050). Briefly: Human 12/15-LOX E. coli IC50. The class given is biochemical.
The subject of the next data set is Mouse HT22. Briefly: Mouse HT22 EC50. Particulars: HT-22. In kind it is cell-based.
The test system of the next data set is Rat Primary Neuron. Briefly: Rat Primary Neuron EC50. In kind it is cell-based.
In data set [2] the test system is experimental stroke model in mice (MCAO). Kind of data set: Mouse stroke model, filament middle cerebral artery occlusion (MCAO), infarct size. In kind it is in vivo. The procedure:
Studies were carried out in experimental stroke model in mice, using the filament model of middle cerebral artery occlusion (MCAO). For intraperitoneal delivery, compounds were dissolved in DMSO. A number of exemplified compounds were able to reduce infarct size when given at a dosage of 40 mg/kg.
40 mg/kg cmpd. 1 were given i.p. at time of reperfusion. Infarct size was measured at 24 hours after 60 minutes MCAO.
MCAO (Experimental Middle Cerebral Artery Ischemia and Functional Recovery) experiment: 40 mg/kg of compound delivered intraperitoneally 2 h post reperfusion, 60 minutes MCAO, sacrifice at 24 h, infarct size determined by TTC staining.

Data set [3] shares this test system. Kind of data set: Long-term outcome after MCAO: adhesive (tape) removal test. The class given is in vivo, mouse. To be noted: 40 mg/kg i.v. 2 hours post reperfusion. The protocol:
Long-term outcome experiment: 40 mg/kg cmpd. 1 delivered I.V. 2 hours post reperfusion, same as short term, compared to vehicle (10% solutol/90% PEG400). 45 mice operated, and 27 survived, mice were sacrificed on day 30.

Sequence of h12/15-LOX (P16050 whole entry): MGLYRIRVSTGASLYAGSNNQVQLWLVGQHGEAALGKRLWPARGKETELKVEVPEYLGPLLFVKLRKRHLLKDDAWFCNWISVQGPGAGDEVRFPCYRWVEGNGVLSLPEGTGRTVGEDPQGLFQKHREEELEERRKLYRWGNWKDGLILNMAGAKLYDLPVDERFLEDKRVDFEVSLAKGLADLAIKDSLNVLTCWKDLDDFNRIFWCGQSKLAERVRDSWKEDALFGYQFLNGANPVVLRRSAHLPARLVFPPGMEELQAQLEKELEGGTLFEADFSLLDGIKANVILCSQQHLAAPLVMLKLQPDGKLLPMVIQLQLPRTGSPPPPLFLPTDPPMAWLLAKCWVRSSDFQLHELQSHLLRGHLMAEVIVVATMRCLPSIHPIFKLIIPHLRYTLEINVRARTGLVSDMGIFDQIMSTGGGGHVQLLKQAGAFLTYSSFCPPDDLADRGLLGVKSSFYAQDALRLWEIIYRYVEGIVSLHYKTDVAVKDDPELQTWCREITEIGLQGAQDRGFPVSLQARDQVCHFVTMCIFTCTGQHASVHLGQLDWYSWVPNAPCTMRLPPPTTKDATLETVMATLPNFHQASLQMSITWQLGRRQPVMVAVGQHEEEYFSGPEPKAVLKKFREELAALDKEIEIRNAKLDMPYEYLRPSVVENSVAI
Sequence of Human 12/15-LOX E. coli (P16050 whole entry): as above

By IC50 is commonly meant the concentration needed to halve the response being measured. Low values mean higher potency, high ones lower potency. A word on the microsomal CLint: it is the capacity of the preparation to metabolise the compound, expressed as a volume cleared per time. Lower therefore signals slow turnover. What is called EC50 is the concentration that produces a half-maximal response. On to `CNc1oc(-c2cc(Cl)cc(Cl)c2Cl)nc1C#N` [Compound 1, 5-(methylamino)-2-(2,3,5-trichlorophenyl) oxazole-4-carbonitrile], for which the results for the IC50 against h12/15-LOX and on Human 12/15-LOX E. coli were 120 nM and 110 nM, respectively. Besides, the Emax at h12/15-LOX (h12/15-LOX, read-out: Max % inhibition) came to 94%. Further, the “Extr (EH)” value in data set [1] (Human liver microsomes) is reported as “** (“**” 50-100%)”; in data set [1] (Mouse liver microsomes), “** (“**” 50-100%)”; in data set [1] (Rat liver microsomes), “* (“*” <50%)”. Further, the microsomal CLint was 20 to 100 µL/min/mg in data set [1] (Human liver microsomes), 20 to 100 µL/min/mg in data set [1] (Mouse liver microsomes) and under 20 µL/min/mg in data set [1] (Rat liver microsomes). Also, the “Human 12/15-LOX E. coli % max” value on Human 12/15-LOX E. coli is listed as 88%. For the same compound, the concentration for a half-maximal effect (EC50) in the data set on Mouse HT22 was determined as 5 µM; in the data set on Rat Primary Neuron it was 9.5 µM. Besides, the infarct size reduction is recorded as 25.8% in data set [2] (20 mg/kg i.v. 2 hours post reperfusion); 34.1% in data set [2] (40 mg/kg i.v. in 10% Solutol/90% PEG400, 2 h after reperfusion, 24 h); 37.2% in data set [2] (female mice, 40 mg/kg i.p. at time of reperfusion, 24 h after 60 minutes MCAO); 33.4% in data set [2] (male mice, 40 mg/kg i.p. at time of reperfusion, 24 h after 60 minutes MCAO). The “Adhesive (tape) removal test, improvement compared to vehicle treatment” value in data set [3] (Week 1) amounted to 65.6%; in data set [3] (Week 4), 93.3%.
